The source of these data is ChEMBL document CHEMBL1142784, “Discovery and in vitro evaluation of potent kinase inhibitors: Pyrido[1',2':1,5]pyrazolo[3,4-d]pyrimidines” (Bioorg Med Chem Lett, 2005).

The IC50 is the concentration that gives 50% inhibition. A lower IC50 goes with inhibition by little substance.

The target in experiment [1] is Vascular endothelial growth factor receptor (Homo sapiens, UniProt P17948+P35916+P35968). The experiment can be described thus: Inhibitory concentration against VEGFR(10 nM) by using homogeneous time-resolved fluorescence detection in pH 7.5.
The target of experiment [2] is Glycogen synthase kinase-3 (Homo sapiens, UniProt P49840+P49841). Kind of experiment: Inhibitory concentration against GSK3-beta by using [gamma-33P]-ATP as radioligand expressed in Escherichia coli in pH 7.2 for 19 min at room temperature.
The target in experiment [3] is Epidermal growth factor receptor (Homo sapiens, UniProt P00533). Kind of experiment: Inhibitory concentration against EGFR by using [gamma-33P]-ATP as radioligand in pH 7.5.
Chain of Epidermal growth factor receptor (P00533 whole entry): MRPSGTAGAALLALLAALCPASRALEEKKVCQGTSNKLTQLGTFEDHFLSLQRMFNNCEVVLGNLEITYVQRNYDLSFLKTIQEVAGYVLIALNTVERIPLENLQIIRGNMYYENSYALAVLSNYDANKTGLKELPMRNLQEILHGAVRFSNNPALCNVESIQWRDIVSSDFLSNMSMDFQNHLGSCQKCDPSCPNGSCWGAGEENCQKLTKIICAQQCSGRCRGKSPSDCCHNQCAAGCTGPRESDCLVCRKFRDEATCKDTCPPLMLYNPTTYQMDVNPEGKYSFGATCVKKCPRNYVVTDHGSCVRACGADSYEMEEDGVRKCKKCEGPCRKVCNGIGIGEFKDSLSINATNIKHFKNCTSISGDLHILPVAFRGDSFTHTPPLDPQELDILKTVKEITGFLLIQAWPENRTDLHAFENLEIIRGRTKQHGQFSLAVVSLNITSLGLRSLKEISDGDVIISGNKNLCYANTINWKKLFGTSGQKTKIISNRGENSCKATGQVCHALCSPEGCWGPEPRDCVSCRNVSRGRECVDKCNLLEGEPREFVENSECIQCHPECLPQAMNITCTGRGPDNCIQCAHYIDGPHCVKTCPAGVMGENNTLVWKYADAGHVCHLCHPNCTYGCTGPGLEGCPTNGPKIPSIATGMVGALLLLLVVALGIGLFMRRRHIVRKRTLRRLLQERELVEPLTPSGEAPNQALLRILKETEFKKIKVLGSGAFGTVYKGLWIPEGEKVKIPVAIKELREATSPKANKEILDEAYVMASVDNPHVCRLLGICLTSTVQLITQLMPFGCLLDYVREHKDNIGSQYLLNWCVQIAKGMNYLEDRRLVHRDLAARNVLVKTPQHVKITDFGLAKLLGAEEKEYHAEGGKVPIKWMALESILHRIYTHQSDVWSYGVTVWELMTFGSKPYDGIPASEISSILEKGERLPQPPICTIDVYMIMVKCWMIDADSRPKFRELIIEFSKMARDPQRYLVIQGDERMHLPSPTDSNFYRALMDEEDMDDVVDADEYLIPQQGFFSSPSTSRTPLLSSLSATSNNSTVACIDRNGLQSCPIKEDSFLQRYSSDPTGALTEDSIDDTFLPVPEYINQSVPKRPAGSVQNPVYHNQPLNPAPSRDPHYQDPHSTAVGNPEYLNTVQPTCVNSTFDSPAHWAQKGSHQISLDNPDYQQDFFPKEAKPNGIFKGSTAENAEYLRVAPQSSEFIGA
Experiment [4] concerns the target Receptor tyrosine-protein kinase erbB-2 (Homo sapiens, UniProt P04626). The experiment can be described thus: Inhibitory concentration against ErbB-2 protein tyrosine kinase by using [gamma-33P]-ATP as radioligand in pH 7.5.

Chain of Receptor tyrosine-protein kinase erbB-2 (P04626 whole entry): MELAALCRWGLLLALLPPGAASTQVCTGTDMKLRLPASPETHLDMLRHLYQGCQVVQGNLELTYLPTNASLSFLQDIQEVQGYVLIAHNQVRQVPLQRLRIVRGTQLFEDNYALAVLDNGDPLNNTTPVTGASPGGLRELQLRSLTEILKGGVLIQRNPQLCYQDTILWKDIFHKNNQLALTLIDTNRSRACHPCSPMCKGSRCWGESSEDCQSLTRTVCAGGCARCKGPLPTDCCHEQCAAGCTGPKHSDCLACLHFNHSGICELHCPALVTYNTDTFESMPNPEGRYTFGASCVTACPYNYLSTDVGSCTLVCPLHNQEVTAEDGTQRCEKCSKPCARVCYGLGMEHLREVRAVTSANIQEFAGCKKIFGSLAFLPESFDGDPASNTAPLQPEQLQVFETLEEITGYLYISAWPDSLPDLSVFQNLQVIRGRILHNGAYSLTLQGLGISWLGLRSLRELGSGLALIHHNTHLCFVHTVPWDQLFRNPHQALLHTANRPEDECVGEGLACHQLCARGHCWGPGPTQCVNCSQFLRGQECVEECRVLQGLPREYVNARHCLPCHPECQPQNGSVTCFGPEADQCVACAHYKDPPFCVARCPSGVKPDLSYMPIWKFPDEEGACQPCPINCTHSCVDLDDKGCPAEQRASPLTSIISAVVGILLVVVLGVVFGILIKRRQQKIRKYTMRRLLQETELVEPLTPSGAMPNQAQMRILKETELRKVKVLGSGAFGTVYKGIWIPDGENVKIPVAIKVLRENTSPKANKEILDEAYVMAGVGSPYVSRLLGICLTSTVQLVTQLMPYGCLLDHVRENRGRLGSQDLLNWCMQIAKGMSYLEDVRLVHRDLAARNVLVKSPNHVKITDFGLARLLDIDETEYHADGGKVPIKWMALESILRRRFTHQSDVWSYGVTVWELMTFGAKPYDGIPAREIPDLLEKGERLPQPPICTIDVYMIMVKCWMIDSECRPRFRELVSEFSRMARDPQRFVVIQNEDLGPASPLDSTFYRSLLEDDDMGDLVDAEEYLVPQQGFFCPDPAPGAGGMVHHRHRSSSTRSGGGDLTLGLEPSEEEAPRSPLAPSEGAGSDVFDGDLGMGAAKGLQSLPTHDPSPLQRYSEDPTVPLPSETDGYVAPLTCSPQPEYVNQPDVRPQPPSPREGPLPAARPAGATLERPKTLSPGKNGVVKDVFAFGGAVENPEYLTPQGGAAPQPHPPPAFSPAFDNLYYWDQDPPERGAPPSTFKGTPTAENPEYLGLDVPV

With `O=C(Nc1cccc(C(F)(F)F)c1)Nc1ncnc2nn3ccccc3c12`, the IC50 in experiment [1] worked out at 251 nM; in experiment [2] it was 158 nM.
On to `O=C(Nc1ccc(Br)cc1)Nc1ncnc2nn3ccccc3c12`, for which the IC50 in experiment [1] was 3980 nM; in experiment [2] it was 1000 nM.
As to `N#Cc1cccc(NC(=O)Nc2ncnc3nn4ccccc4c23)c1`, the IC50 in experiment [1] stood at 200 nM; in experiment [2] it was 126 nM.
The corresponding values for `O=C(Nc1ccc(C(F)(F)F)cc1)Nc1ncnc2nn3ccccc3c12` are 3980 nM and 1580 nM.
Taken in the same sequence, the figures for `O=C(Nc1cccc([N+](=O)[O-])c1)Nc1ncnc2nn3ccccc3c12` were greater than 10000 nM and 316 nM.
For `Clc1cc(Nc2ncnc3nn4ccccc4c23)ccc1OCc1ccccc1`, the IC50 in experiment [3] turned out to be 50 nM; in experiment [4] it was 200 nM.
For `O=C(Nc1ccc(F)cc1)Nc1ncnc2nn3ccccc3c12`, the IC50 in experiment [1] was 631 nM; in experiment [2], greater than 10000 nM.
For the molecule `c1ccc(Cc2nc3ccc(Nc4ncnc5nn6ccccc6c45)cc3[nH]2)cc1`, the IC50 in experiment [3] worked out at 5010 nM; in experiment [4], 1580 nM.
The corresponding values for `Nc1ncnc2nn3ccccc3c12` are greater than 10000 nM and greater than 10000 nM.
